# Measurements: patent US20220323406A1, “METHODS AND COMPOSITIONS FOR DIFFERENTIATING STEM CELLS” (Massachusetts Institute of Technology, priority 2019, published 2022)
# How the values were obtained:
# [1] = system: ENR+CD organoids (ISC to Paneth cell differentiation); assay: Primary screen: CCh-stimulated lysozyme secretion LYZ.S, 2.5-D 384-well ENR+CD organoid differentiation; format: cell-based, mouse; conditions: primary screen
# Excerpt: (§1) High-throughput screening.
# [2] = system: ENR+CD organoids (ISC to Paneth cell differentiation); assay: Primary screen: basal (non-stimulated) lysozyme secretion LYZ.NS, 2.5-D 384-well ENR+CD organoid differentiation; format: cell-based, mouse
# Excerpt: as §1
# ENR+CD organoids = assay: Primary screen: ATP (CellTiter-Glo 3D, CTG) cell number/viability, 2.5-D 384-well ENR+CD organoids; conditions: primary screen; for Z.CTG: standard z score;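 on all read-outs here: compounds given at plating and again on day 3 over a 6-day differentiation from ENR+CV stem-cell-enriched precursors, ATP measured on day 6, plate median as control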
# [3] = primary screen, standard z score, dose 0.08 uM
# [4] = primary screen, standard z score, dose 0.40 uM
# [5] = primary screen, standard z score, dose 2.00 uM
# [6] = primary screen, standard z score, dose 10.00 uM
# [7] = dose 0.08 uM, FC relative to plate median
# [8] = dose 0.40 uM, FC relative to plate median
# [9] = dose 2.00 uM, FC relative to plate median
# [10] = dose 10.00 uM, FC relative to plate median
SMILES,Dose.FC.LYZ.S ([1]; dose 0.08 uM) [log2 fold change],Dose.FC.LYZ.S ([1]; dose 0.40 uM) [log2 fold change],Dose.FC.LYZ.S ([1]; dose 2.00 uM) [log2 fold change],Dose.FC.LYZ.S ([1]; dose 10.00 uM) [log2 fold change],"Dose.FC.LYZ.NS ([2]; primary screen, dose 0.08 uM) [log2 fold change]","Dose.FC.LYZ.NS ([2]; primary screen, dose 0.40 uM) [log2 fold change]","Dose.FC.LYZ.NS ([2]; primary screen, dose 2.00 uM) [log2 fold change]","Dose.FC.LYZ.NS ([2]; primary screen, dose 10.00 uM) [log2 fold change]","Z.LYZ.NS [2, 3]","Z.LYZ.NS [2, 4]","Z.LYZ.NS [2, 5]","Z.LYZ.NS [2, 6]",Dose.FC.CTG (ENR+CD organoids; dose 0.08 uM) [log2 fold change],Dose.FC.CTG (ENR+CD organoids; dose 0.40 uM) [log2 fold change],Dose.FC.CTG (ENR+CD organoids; dose 2.00 uM) [log2 fold change],Dose.FC.CTG (ENR+CD organoids; dose 10.00 uM) [log2 fold change],Z.CTG (ENR+CD organoids; dose 0.08 uM),Z.CTG (ENR+CD organoids; dose 0.40 uM),Z.CTG (ENR+CD organoids; dose 2.00 uM),Z.CTG (ENR+CD organoids; dose 10.00 uM),also measured
O=C(O)c1cc2cccc([N+](=O)[O-])c2[nH]1 [CRT0044876],−0.002,0.055,0.014,−0.061,0.016,0.034,0.047,0.032,0.135,0.298,0.408,0.278,−0.171,−0.040,−0.081,−0.099,−0.410,−0.096,−0.192,−0.237,–
Cc1cc(OCCCS(C)(=O)=O)cc(C)c1-c1cccc(COc2ccc3c(c2)OC[C@H]3CC(=O)O)c1 [TAK-875],–,–,–,–,–,–,–,–,–,–,–,–,–,–,–,–,–,–,–,–,"Dose.FC.LYZ.S [1, 7]: 0.212 log2 fold change; Dose.FC.LYZ.S [1, 8]: 0.014 log2 fold change; Dose.FC.LYZ.S [1, 9]: −0.031 log2 fold change; Dose.FC.LYZ.S [1, 10]: −0.060 log2 fold change; Dose.FC.LYZ.NS ([2]; primary screen, dose 0.08 uM, FC relative to plate median): 0.096 log2 fold change; Z.LYZ.NS ([2]; primary screen, dose 0.08 uM, standard z score): 0.839; Dose.FC.LYZ.NS ([2]; primary screen, dose 0.40 uM, FC relative to plate median): 0.023 log2 fold change; Z.LYZ.NS ([2]; primary screen, dose 0.40 uM, standard z score): 0.199; Dose.FC.LYZ.NS ([2]; primary screen, dose 2.00 uM, FC relative to plate median): −0.043 log2 fold change; Z.LYZ.NS ([2]; primary screen, dose 2.00 uM, standard z score): −0.378; Dose.FC.LYZ.NS ([2]; primary screen, dose 10.00 uM, FC relative to plate median): −0.138 log2 fold change; Z.LYZ.NS ([2]; primary screen, dose 10.00 uM, standard z score): −1.199; Dose.FC.CTG (ENR+CD organoids; [7]): 0.239 log2 fold change; Dose.FC.CTG (ENR+CD organoids; [8]): −0.164 log2 fold change; Dose.FC.CTG (ENR+CD organoids; [9]): −0.157 log2 fold change; Dose.FC.CTG (ENR+CD organoids; [10]): −0.291 log2 fold change"
Cc1ccc(NC(=O)C2(c3ccc4c(c3)OC(F)(F)O4)CC2)nc1-c1cccc(C(=O)O)c1 [VX-809 (Lumacaftor)],0.218,−0.027,−0.073,−0.117,0.073,−0.041,−0.032,−0.082,–,–,–,–,0.177,−0.062,−0.145,0.032,–,–,–,–,"Z.LYZ.NS (standard z score) ([2]; primary screen, dose 0.08 uM): 0.634; Z.LYZ.NS (standard z score) ([2]; primary screen, dose 0.40 uM): −0.353; Z.LYZ.NS (standard z score) ([2]; primary screen, dose 2.00 uM): −0.279; Z.LYZ.NS (standard z score) ([2]; primary screen, dose 10.00 uM): −0.713; Z.CTG (standard z score) (ENR+CD organoids; dose 0.08 uM): 0.423; Z.CTG (standard z score) (ENR+CD organoids; dose 0.40 uM): −0.149; Z.CTG (standard z score) (ENR+CD organoids; dose 2.00 uM): −0.346; Z.CTG (standard z score) (ENR+CD organoids; dose 10.00 uM): 0.076"
CC(C)Oc1ccc(-c2cnc3c(-c4ccnc5ccccc45)cnn3c2)cc1 [DMH1],0.078,0.054,0.035,−0.092,0.018,0.026,0.014,−0.075,0.155,0.231,0.124,−0.657,−0.031,−0.079,−0.002,−0.001,−0.075,−0.188,−0.004,−0.003,–
COc1ccccc1OCCNCC(O)COc1cccc2[nH]c3ccccc3c12 (centres unmarked) [Carvedilol],−0.009,−0.079,−0.087,0.019,0.002,−0.020,0.099,−0.053,0.021,−0.175,0.866,−0.464,0.057,−0.014,−0.151,−0.242,–,–,–,–,–
